Columns and labels:
[1] = system: kochia; assay: Test A postemergence; type: in vivo, Kochia scoparia
How it was run: (§1)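 Visual 0–100 rating (100 = complete control) taken about 10 d post-treatment relative to untreated checks. Preemergence: directed soil spray on sown loam/sand pots. Postemergence: seedlings 2–10 cm, 1–2 leaf. Non-phytotoxic solvent formulation with surfactant.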

[2] = system: barnyardgrass; assay: Test B flooded paddy test; type: in vivo, Echinochloa crus-galli; conditions: Flood, 250 g ai/ha; 0 to 100 scale where 0 is no effect and 100 is complete control
How it was run: (§2)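 Greenhouse flooded-pot test: compounds dosed into 3 cm standing water over 2-leaf plants, flood held constant. Rated visually after 13–15 days on 0–100 (complete control = 100); a dash marks no test result.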

[3] = system: wheat; assay: Test A postemergence; type: in vivo, Triticum aestivum
How it was run: as §1

[4] = system: galium; assay: Test A postemergence; type: in vivo, Galium aparine
How it was run: as §1

[5] = system: sedge, umbrella; assay: Test B flooded paddy test; type: in vivo, Cyperus difformis; conditions: Flood, 250 g ai/ha; 0 to 100 scale where 0 is no effect and 100 is complete control
How it was run: as §2

[6] = system: giant foxtail; assay: Test A postemergence; type: in vivo, Setaria faberii
How it was run: as §1

[7] = system: giant foxtail; assay: Test A preemergence; type: in vivo, Setaria faberii
How it was run: as §1

[8] = system: pigweed; assay: Test A postemergence; type: in vivo, Amaranthus retroflexus
How it was run: as §1

[9] = system: blackgrass; assay: Test A postemergence; type: in vivo, Alopecurus myosuroides
How it was run: as §1

[10] = system: pigweed; assay: Test A preemergence; type: in vivo, Amaranthus retroflexus
How it was run: as §1

[11] = system: ragweed; assay: Test A postemergence; type: in vivo, Ambrosia elatior
How it was run: as §1

[12] = system: barnyardgrass; assay: Test A postemergence; type: in vivo, Echinochloa crus-galli
How it was run: as §1

[13] = system: rice; assay: Test B flooded paddy test; type: in vivo, Oryza sativa; conditions: Flood, 250 g ai/ha; 0 to 100 scale where 0 is no effect and 100 is complete control
How it was run: as §2

[14] = system: kochia; assay: Test A preemergence; type: in vivo, Kochia scoparia
How it was run: as §1

[15] = system: Italian ryegrass; assay: Test A postemergence; type: in vivo, Lolium multiflorum
How it was run: as §1

[16] = system: Italian ryegrass; assay: Test A preemergence; type: in vivo, Lolium multiflorum
How it was run: as §1

[17] = system: barnyardgrass; assay: Test A preemergence; type: in vivo, Echinochloa crus-galli
How it was run: as §1

[18] = system: Heteranthera limosa; assay: Test B flooded paddy test; type: in vivo; conditions: Flood, 250 g ai/ha; 0 to 100 scale where 0 is no effect and 100 is complete control
How it was run: as §2

[19] = system: ragweed; assay: Test A preemergence; type: in vivo, Ambrosia elatior
How it was run: as §1

[20] = system: corn; assay: Test A postemergence; type: in vivo, Zea mays
How it was run: as §1

[21] = 125 g ai/ha, 0 to 100 scale where 0 is no effect and 100 is complete control
[22] = 500 g ai/ha, 0 to 100 scale where 0 is no effect and 100 is complete control
[23] = 1000 g ai/ha, 0 to 100 scale, 0 no effect, 100 complete control
[24] = 1000 g ai/ha, 0 to 100 scale, 0 no effect, 100 complete control, approx. 10 days
[25] = 31 g ai/ha, 0 to 100 scale, 0 no effect, 100 complete control
[26] = 125 g ai/ha, 0 to 100 scale, 0 no effect, 100 complete control
[27] = 31 g ai/ha, 0 to 100 scale where 0 is no effect and 100 is complete control, visual, approximately 10 days

CS(=O)(=O)c1cccc(Oc2ncc(Cl)cn2)c1-n1cc(Br)cn1 [Compound 142]
Kochia plant response rating [1, 21]: 0
Plant response rating, Kochia [1, 22]: 70
Plant response rating, Barnyardgrass [2]: 0
Wheat plant response rating [3, 21]: 0
Plant response rating, Wheat [3, 22]: 0
Galium plant response rating [4, 21]: 0
Plant response rating, Galium [4, 22]: 0
Plant response rating, Sedge, Umbrella [5]: 0
Foxtail, Giant plant response rating [6, 21]: 0
Plant response rating, Foxtail, Giant [6, 22]: 0
Plant response rating, Foxtail, Giant [7, 21]: 0
Foxtail, Giant plant response rating [7, 22]: 0
Pigweed plant response rating [8, 21]: 0
Plant response rating, Pigweed [8, 22]: 0
Blackgrass plant response rating [9, 21]: 0
Plant response rating, Blackgrass [9, 22]: 0
Plant response rating, Pigweed [10, 21]: 0
Pigweed plant response rating [10, 22]: 0
Ragweed plant response rating [11, 21]: 0
Plant response rating, Ragweed [11, 22]: 0
Barnyardgrass plant response rating [12, 21]: 0
Plant response rating, Barnyardgrass [12, 22]: 0
Plant response rating, Rice [13]: 0
Plant response rating, Kochia [14, 21]: 0
Kochia plant response rating [14, 22]: 50
Ryegrass, Italian plant response rating [15, 21]: 0
Plant response rating, Ryegrass, Italian [15, 22]: 0
Plant response rating, Ryegrass, Italian [16, 21]: 0
Ryegrass, Italian plant response rating [16, 22]: 0
Plant response rating, Barnyardgrass [17, 21]: 0
Barnyardgrass plant response rating [17, 22]: 0
Plant response rating, Ducksalad [18]: 0
Plant response rating, Ragweed [19, 21]: 0
Ragweed plant response rating [19, 22]: 20
Corn plant response rating [20, 21]: 0
Plant response rating, Corn [20, 22]: 0

COC(=O)c1cccc(Oc2ncc(Cl)cn2)c1-n1cc(C(F)(F)F)cn1 [Compound 248]
Plant response rating, Kochia [1, 23]: 90
Plant response rating, Barnyardgrass [2]: 0
Plant response rating, Wheat [3, 23]: 20
Plant response rating, Galium [4, 23]: 100
Plant response rating, Sedge, Umbrella [5]: 70
Plant response rating, Foxtail, Giant [6, 23]: 100
Foxtail, Giant plant response rating [7, 24]: 100
Plant response rating, Pigweed [8, 23]: 100
Plant response rating, Blackgrass [9, 23]: 30
Pigweed plant response rating [10, 24]: 100
Plant response rating, Ragweed [11, 23]: 50
Plant response rating, Barnyardgrass [12, 23]: 70
Plant response rating, Rice [13]: 15
Kochia plant response rating [14, 24]: 100
Plant response rating, Ryegrass, Italian [15, 23]: 50
Ryegrass, Italian plant response rating [16, 24]: 50
Barnyardgrass plant response rating [17, 24]: 80
Plant response rating, Ducksalad [18]: 50
Ragweed plant response rating [19, 24]: 40
Plant response rating, Corn [20, 23]: 80

Cc1cc(C)n(-c2ccccc2Oc2ncc(Cl)cn2)n1 [Compound 264]
Plant response rating, Kochia [1, 25]: 0
Plant response rating, Kochia [1, 26]: 0
Plant response rating, Barnyardgrass [2]: 0
Plant response rating, Wheat [3, 25]: 0
Plant response rating, Wheat [3, 26]: 0
Plant response rating, Galium [4, 25]: 0
Plant response rating, Galium [4, 26]: 0
Plant response rating, Sedge, Umbrella [5]: 0
Plant response rating, Foxtail, Giant [6, 25]: 0
Plant response rating, Foxtail, Giant [6, 26]: 0
Plant response rating, Foxtail, Giant [7, 27]: 0
Foxtail, Giant plant response rating (0 to 100 scale) ([7]; 125 g ai/ha): 0
Plant response rating, Pigweed [8, 25]: 0
Plant response rating, Pigweed [8, 26]: 0
Plant response rating, Blackgrass [9, 25]: 0
Plant response rating, Blackgrass [9, 26]: 0
Plant response rating, Pigweed [10, 27]: 0
Pigweed plant response rating (0 to 100 scale) ([10]; 125 g ai/ha): 0
Plant response rating, Ragweed [11, 25]: 0
Plant response rating, Ragweed [11, 26]: 0
Plant response rating, Barnyardgrass [12, 25]: 0
Plant response rating, Barnyardgrass [12, 26]: 0
Plant response rating, Rice [13]: 0
Plant response rating, Kochia [14, 27]: 0
Kochia plant response rating (0 to 100 scale) ([14]; 125 g ai/ha): 0
Plant response rating, Ryegrass, Italian [15, 25]: 0
Plant response rating, Ryegrass, Italian [15, 26]: 0
Plant response rating, Ryegrass, Italian [16, 27]: 0
Ryegrass, Italian plant response rating (0 to 100 scale) ([16]; 125 g ai/ha): 0
Plant response rating, Barnyardgrass [17, 27]: 0
Barnyardgrass plant response rating (0 to 100 scale, 0 is no effect, 100 is complete control) ([17]; 125 g ai/ha): 0
Plant response rating, Ducksalad [18]: 0
Plant response rating, Ragweed [19, 27]: 0
Ragweed plant response rating (0 to 100 scale) ([19]; 125 g ai/ha): 0
Plant response rating, Corn [20, 25]: 0
Plant response rating, Corn [20, 26]: 0

Source: patent publication US9695155B2, “Herbicidal substituted pyrimidinyloxy benzene compounds” (E. I. DU PONT DE NEMOURS AND COMPANY, priority 2013, dated 2017)
